Patent US20050197338A1, “Substituted pyrazole urea compounds for the treatment of inflammation” (priority 2003, published 2005)

Biological target: T1, human IKK-2 (rhIKK-2 homodimer) (Homo sapiens, UniProt O14920)
T1 construct: FLAG (DYKDDDDKD) (C); made in house; host or cells: insect cells (baculovirus, pFastBac)
T1 sequence (O14920 1-756): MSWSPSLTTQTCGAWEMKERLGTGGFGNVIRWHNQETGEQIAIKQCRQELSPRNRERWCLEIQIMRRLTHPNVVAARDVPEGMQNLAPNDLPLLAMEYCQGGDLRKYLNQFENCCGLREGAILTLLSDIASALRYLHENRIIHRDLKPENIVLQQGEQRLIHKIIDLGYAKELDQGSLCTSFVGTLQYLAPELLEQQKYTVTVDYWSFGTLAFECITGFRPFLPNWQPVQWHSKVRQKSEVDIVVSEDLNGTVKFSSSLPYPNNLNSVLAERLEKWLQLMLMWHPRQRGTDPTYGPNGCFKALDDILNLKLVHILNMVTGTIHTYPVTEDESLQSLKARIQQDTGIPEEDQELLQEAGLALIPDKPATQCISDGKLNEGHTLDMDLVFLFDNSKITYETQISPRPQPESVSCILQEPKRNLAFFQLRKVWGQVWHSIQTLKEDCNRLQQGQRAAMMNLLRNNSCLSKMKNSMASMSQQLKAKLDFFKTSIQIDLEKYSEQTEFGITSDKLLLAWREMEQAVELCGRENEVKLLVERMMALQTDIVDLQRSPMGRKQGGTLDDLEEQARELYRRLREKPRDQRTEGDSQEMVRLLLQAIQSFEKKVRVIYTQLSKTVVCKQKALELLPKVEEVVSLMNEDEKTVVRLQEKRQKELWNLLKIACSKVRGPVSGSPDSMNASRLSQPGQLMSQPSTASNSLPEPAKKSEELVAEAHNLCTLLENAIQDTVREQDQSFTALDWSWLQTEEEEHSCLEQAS
Assay: IKK-2 Resin Enzyme Assay (Human IKK-2 Enzyme Assay)
Format: biochemical
Conditions: human IKK-2, resin enzyme assay; read-out: IC50 (μM) hIKK-2
In short: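 C-terminally FLAG-tagged human IKK-2 homodimer, baculovirus-expressed in insect cells and anti-FLAG purified. Reaction mix: 5 μM biotinylated IκBα peptide (Ser32/Ser36 region), 1 μM ATP with [γ-33P]ATP, 2 mM MgCl2, 2 mM MnCl2, 10 mM NaF, 1 mM DTT, 25 mM HEPES pH 7.6. Incubated 30 min at 25 °C; IC50 derived.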

| Compound | IC50 |
| --- | --- |
| NC(=O)Nc1cn(-c2cccc(-c3ccc(F)c(F)c3)c2)nc1C(N)=O [Example 349, 4-[(aminocarbonyl)amino]-1-(3′,4′-difluoro-1,1′-biphenyl-3-yl)-1H-pyrazole-3-carboxamide] | > 20 µM |
| CC(C)c1cccc(-c2cccc(-n3cc(NC(N)=O)c(C(N)=O)n3)c2)c1 [Example 352, 4-[(aminocarbonyl)amino]-1-(3′-isopropyl-1,1′-biphenyl-3-yl)-1H-pyrazole-3-carboxamide] | > 20 µM |
| CC(C)c1ccc(-c2cccc(-n3cc(NC(N)=O)c(C(N)=O)n3)c2)cc1 [Example 353, 4-[(aminocarbonyl)amino]-1-(4′-isopropyl-1,1′-biphenyl-3-yl)-1H-pyrazole-3-carboxamide] | > 20 µM |
| CCOc1cccc(-c2cccc(-n3cc(NC(N)=O)c(C(N)=O)n3)c2)c1 [Example 354, 4-[(aminocarbonyl)amino]-1-(3′-ethoxy-1,1′-biphenyl-3-yl)-1H-pyrazole-3-carboxamide] | > 20 µM |
| CSc1ccccc1-c1cccc(-n2cc(NC(N)=O)c(C(N)=O)n2)c1 [Example 356, 4-[(aminocarbonyl)amino]-1-[2′-(methylthio)-1,1′-biphenyl-3-yl]-1H-pyrazole-3-carboxamide] | > 20 µM |
| CSc1cccc(-c2cccc(-n3cc(NC(N)=O)c(C(N)=O)n3)c2)c1 [Example 357, 4-[(aminocarbonyl)amino]-1-[3′-(methylthio)-1,1′-biphenyl-3-yl]-1H-pyrazole-3-carboxamide] | > 20 µM |
| COc1ccc(-c2cccc(-n3cc(NC(N)=O)c(C(N)=O)n3)c2)cc1F [Example 359, 4-[(aminocarbonyl)amino]-1-(3′-fluoro-4′-methoxy-1,1′-biphenyl-3-yl)-1H-pyrazole-3-carboxamide] | 1.18 µM |
| NC(=O)Nc1cn(-c2cccc(-c3ccc(F)c(Cl)c3)c2)nc1C(N)=O [Example 361, 4-[(aminocarbonyl)amino]-1-(3′-chloro-4′-fluoro-1,1′-biphenyl-3-yl)-1H-pyrazole-3-carboxamide] | > 20 µM |
| CC(C)(C)c1ccc(-c2cccc(-n3cc(NC(N)=O)c(C(N)=O)n3)c2)cc1 [Example 362, 4-[(aminocarbonyl)amino]-1-(4′-tert-butyl-1,1′-biphenyl-3-yl)-1H-pyrazole-3-carboxamide] | > 20 µM |
| CC(C)Cc1ccc(-c2cccc(-n3cc(NC(N)=O)c(C(N)=O)n3)c2)cc1 [Example 363, 4-[(aminocarbonyl)amino]-1-(4′-isobutyl-1,1′-biphenyl-3-yl)-1H-pyrazole-3-carboxamide] | > 20 µM |
| COc1ccc(Cl)cc1-c1cccc(-n2cc(NC(N)=O)c(C(N)=O)n2)c1 [Example 365, 4-[(aminocarbonyl)amino]-1-(5′-chloro-2′-methoxy-1,1′-biphenyl-3-yl)-1H-pyrazole-3-carboxamide] | 11.6 µM |
| NC(=O)Nc1cn(-c2cccc(-c3ccccc3C(F)(F)F)c2)nc1C(N)=O [Example 366, 4-[(aminocarbonyl)amino]-1-[2′-(trifluoromeethyl)-1,1′-biphenyl-3-yl]-1H-pyrazole-3-carboxamide] | > 20 µM |
| NC(=O)Nc1cn(-c2cccc(-c3cccc(C(F)(F)F)c3)c2)nc1C(N)=O [Example 367, 4-[(aminocarbonyl)amino]-1-[3′-(trifluoromethyl)-1,1′-biphenyl-3-yl]-1H-pyrazole-3-carboxamide] | > 20 µM |
| NC(=O)Nc1cn(-c2cccc(-c3ccc(Cl)cc3Cl)c2)nc1C(N)=O [Example 369, 4-[(aminocarbonyl)amino]-1-(2′,4′-dichloro-1,1′-biphenyl-3-yl)-1H-pyrazole-3-carboxamide] | 16.7 µM |
| NC(=O)Nc1cn(-c2cccc(-c3cc(Cl)cc(Cl)c3)c2)nc1C(N)=O [Example 370, 4-[(aminocarbonyl)amino]-1-(3′,5′-dichloro-1,1′-biphenyl-3-yl)-1H-pyrazole-3-carboxamide] | > 20 µM |
| NC(=O)Nc1cn(-c2cccc(-c3ccc(-c4ccccc4)cc3)c2)nc1C(N)=O [Example 373, 4-[(aminocarbonyl)amino]-1-(1,1′:4′,1″-terphenyl-3-yl)-1H-pyrazole-3-carboxamide] | > 20 µM |
| CS(=O)(=O)c1ccc(-c2cccc(-n3cc(NC(N)=O)c(C(N)=O)n3)c2)cc1 [Example 374, 4-[(aminocarbonyl)amino]-1-[4′-(methylsulfonyl)-1,1′-biphenyl-3-yl]-1H-pyrazole-3-carboxamide] | 0.544 µM |
| NC(=O)Nc1cn(-c2ccc(Sc3ccc(F)cc3)cc2Cl)nc1C(N)=O [Example 376, 1-(1-(4-(4-fluorophenylthio)-2-chlorophenyl)-3-carbamoyl-1H-pyrazol-4-yl)urea] | 0.31 µM |
| NC(=O)Nc1cn(-c2ccc(S(=O)(=O)c3ccc(F)cc3)cc2Cl)nc1C(N)=O [Example 377, 1-(1-(4-(4-fluorophenylsulfonyl)-2-chlorophenyl)-3-carbamoyl-1H-pyrazol-4-yl)urea] | 0.113 µM |
| COc1ccc(CNC(=O)CCc2cccc(-c3ccc(-n4cc(NC(N)=O)c(C(N)=O)n4)cc3)c2)c(OC)c1 [Example 380, 4-[(aminocarbonyl)amino]-1-(3′-{3-[(2,4-dimethoxybenzyl)amino]-3-oxopropyl}-1,1′-biphenyl-4-yl)-1H-pyrazole-3-carboxamide] | 1.54 µM |
| CNC(=O)CCc1cccc(-c2ccc(-n3cc(NC(N)=O)c(C(N)=O)n3)cc2)c1 [Example 381, 4-[(aminocarbonyl)amino]-1-{3′-[3-(methylamino)-3-oxopropyl]-1,1′-biphenyl-4-yl}-1H-pyrazole-3-carboxamide] | 0.42 µM |
| CCN(CC)C(=O)CCc1cccc(-c2ccc(-n3cc(NC(N)=O)c(C(N)=O)n3)cc2)c1 [Example 382, 4-[(aminocarbonyl)amino]-1-{3′-[3-(diethylamino)-3-oxopropyl]-1,1′-biphenyl-4-yl}-1H-pyrazole-3-carboxamide] | 0.9 µM |

Results, then the compound that gave them:

| IC50 | Compound |
| --- | --- |
| > 20 µM | NC(=O)Nc1cn(-c2cccc(-c3cc(F)cc(F)c3)c2)nc1C(N)=O [Example 350, 4-[(aminocarbonyl)amino]-1-(3′,5′-difluoro-1,1′-biphenyl-3-yl)-1H-pyrazole-3-carboxamide] |
| > 20 µM | CC(=O)c1cccc(-c2cccc(-n3cc(NC(N)=O)c(C(N)=O)n3)c2)c1 [Example 351, 1-(3′-acetyl-1,1′-biphenyl-3-yl)-4-[(aminocarbonyl)amino]-1H-pyrazole-3-carboxamide] |
| 6.15 µM | CCOc1ccc(-c2cccc(-n3cc(NC(N)=O)c(C(N)=O)n3)c2)cc1 [Example 355, 4-[(aminocarbonyl)amino]-1-(4′-ethoxy-1,1′-biphenyl-3-yl)-1H-pyrazole-3-carboxamide] |
| 8.57 µM | CSc1ccc(-c2cccc(-n3cc(NC(N)=O)c(C(N)=O)n3)c2)cc1 [Example 358, 4-[(aminocarbonyl)amino]-1-[4′-(methylthio)-1,1′-biphenyl-3-yl]-1H-pyrazole-3-carboxamide] |
| > 20 µM | NC(=O)Nc1cn(-c2cccc(-c3cccc4ccccc34)c2)nc1C(N)=O [Example 360, 4-[(aminocarbonyl)amino]-1-[3-(1-naphthyl)phenyl]-1H-pyrazole-3-carboxamide] |
| 16.2 µM | CCCCc1ccc(-c2cccc(-n3cc(NC(N)=O)c(C(N)=O)n3)c2)cc1 [Example 364, 4-[(aminocarbonyl)amino]-1-(4′-butyl-1,1′-biphenyl-3-yl)-1H-pyrazole-3-carboxamide] |
| > 20 µM | NC(=O)Nc1cn(-c2cccc(-c3ccc(C(F)(F)F)cc3)c2)nc1C(N)=O [Example 368, 4-[(aminocarbonyl)amino]-1-[4′-(trifluoromethyl)-1,1′-biphenyl-3-yl]-1H-pyrazole-3-carboxamide] |
| 1.09 µM | NC(=O)Nc1cn(-c2cccc(-c3ccccc3-c3ccccc3)c2)nc1C(N)=O [Example 371, 4-[(aminocarbonyl)amino]-1-(1,1′:2′,1″-terphenyl-3-yl)-1H-pyrazole-3-carboxamide] |
| > 20 µM | NC(=O)Nc1cn(-c2cccc(-c3cccc(-c4ccccc4)c3)c2)nc1C(N)=O [Example 372] |
| > 20 µM | NC(=O)Nc1cn(-c2cccc(-c3ccc(C4CCCCC4)cc3)c2)nc1C(N)=O [Example 375, 4-[(aminocarbonyl)amino]-1-(4′-cyclohexyl-1,1′-biphenyl-3-yl)-1H-pyrazole-3-carboxamide] |
| 0.315 µM | NC(=O)Nc1cn(-c2ccc(S(=O)(=O)c3ccc(F)cc3)cc2F)nc1C(N)=O [Example 378, 1-(1-(4-(4-fluorophenylsulfonyl)-2-fluorophenyl)-3-carbamoyl-1H-pyrazol-4-yl)urea] |
| 1.95 µM | NC(=O)Nc1cn(-c2ccc(-c3ccccc3CCC(=O)O)cc2)nc1C(N)=O [Example 379, 3-(4′-{3-(aminocarbonyl)-4-[(aminocarbonyl)amino]-1H-pyrazol-1-yl}-1,1′-biphenyl-2-yl)propanoic acid] |
